Results taken from publication PMC8667925, “New 1,2,4-oxadiazole derivatives with positive mGlu4 receptor modulation activity and antipsychotic-like properties” (Journal of Enzyme Inhibition and Medicinal Chemistry, 2021).
“Also recorded” adds a separate entry of the source. Marks after values point to notes of the source that are not given here.

Columns and labels:
mGlu7 receptor = biological target: T1, mGlu7 receptor (Homo sapiens, UniProt Q14831); assay: cAMP accumulation assay in cells expressing mGlu7 receptor (agonist, PAM, NAM modes); format: cell-based; details: 10 µM, agonist mode
T1 construct: mGlu4 receptor NM_000841, mGlu7 receptor NM_000844.2, and mGlu8 receptor NM_000845; expressed in transfected cells; host or cells: T-REx 293
T1 sequence (Q14831 35-915): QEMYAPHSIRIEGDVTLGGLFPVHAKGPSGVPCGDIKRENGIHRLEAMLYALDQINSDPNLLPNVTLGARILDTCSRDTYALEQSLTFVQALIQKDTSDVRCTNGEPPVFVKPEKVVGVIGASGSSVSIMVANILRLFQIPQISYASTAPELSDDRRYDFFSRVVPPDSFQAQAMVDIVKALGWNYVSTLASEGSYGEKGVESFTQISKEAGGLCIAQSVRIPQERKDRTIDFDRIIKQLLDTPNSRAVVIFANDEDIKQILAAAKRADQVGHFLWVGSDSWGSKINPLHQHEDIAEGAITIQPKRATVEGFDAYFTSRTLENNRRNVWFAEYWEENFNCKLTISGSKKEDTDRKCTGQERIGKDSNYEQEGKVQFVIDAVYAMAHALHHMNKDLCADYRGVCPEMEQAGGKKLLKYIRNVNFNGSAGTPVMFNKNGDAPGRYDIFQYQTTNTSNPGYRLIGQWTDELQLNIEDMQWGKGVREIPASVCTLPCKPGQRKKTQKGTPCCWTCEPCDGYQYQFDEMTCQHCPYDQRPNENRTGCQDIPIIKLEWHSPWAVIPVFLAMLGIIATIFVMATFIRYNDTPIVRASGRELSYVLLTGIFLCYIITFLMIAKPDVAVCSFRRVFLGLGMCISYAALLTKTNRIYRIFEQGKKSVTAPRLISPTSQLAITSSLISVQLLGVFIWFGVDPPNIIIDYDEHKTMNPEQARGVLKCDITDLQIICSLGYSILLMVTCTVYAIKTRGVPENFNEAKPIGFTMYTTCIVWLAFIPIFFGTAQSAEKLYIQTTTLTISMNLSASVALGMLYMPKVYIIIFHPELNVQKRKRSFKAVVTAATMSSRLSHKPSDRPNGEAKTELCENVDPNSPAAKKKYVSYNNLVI
Description: The compounds were tested in the agonist, PAM (in the presence of EC20 concentration of L-Glu) or NAM (with EC80 of L-Glu) modes of forskolin-induced cAMP using T-REx 293 cells expressing the protein of a given receptor.
Figure 4. The activity of compounds 34, 37, 49, 52, 60, 62 and reference drugs MMPIP (a selective NAM of mGlu7 receptor) and AZ12216052 (a PAM of mGlu8 receptor) tested at a concentration of 10 μM in the cAMP accumulation assay in cells expressing mGlu7 and mGlu8 receptors. The percent activity refers to two extreme FRET signals: 0% corresponds to forskolin treatment alone and 100% to maximal FRET signal for the control cells (without any treatment). A/D – agonistic activity; B/E – PAM activity measured in the presence of L-Glu at the EC20 concentration (0.1 mM for mGlu7 receptor, and 1 μM for mGlu8 receptor); C/F – NAM activity measured in the presence of L-Glu at the EC80 concentration (1 mM for mGlu7 receptor, 10 μM for Glu8 receptor).
(§1) Determination of the intracellular cAMP through a homogeneous time-resolved fluorescence (HTRF) cAMP dynamic 2 kit from Cisbio (Codolet, France) was described previously by Chruścicka et al.[91]. Briefly, cells were grown in DMEM supplemented with 10% foetal bovine serum (FBS) (tetracycline free). Forty-eight hours before the experiments, mGlu receptor expression was induced by the addition of 0.75 µg/mL tetracycline. Twenty hours before the experiment, FBS and L-Glu were removed from the medium. Thereafter, the cells were scraped and centrifuged. A cell pellet was suspended in Hanks-HEPES (130 mM NaCl, 5.4 mM KCl, 1.8 mM CaCl2, 0.8 mM MgSO4, 0.9 mM NaH2PO4, 20 mM HEPES, and 3.25 mM glucose; pH 7.4). Then, the cell suspension was incubated in the presence of 10 µM forskolin (or 3 µM forskolin for mGlu7 receptor), the agonist L-glutamate and a compound for 5 min. Next, 10 µl of the cell suspension was mixed with 5 µl of cAMP-d2 conjugate and 5 µL of anti-cAMP cryptate conjugate. After 1 h of incubation at rt, the fluorescence at 620 nm and 665 nm was read (Tecan Infinite M1000). The results were calculated as the 665 nm/620 nm ratio multiplied by 10^4. Each sample was prepared in triplicate.

Albino Swiss mice = assay: DOI-induced head twitch test (HTR); format: in vivo; details: DOI 2.5 mg/kg i.p.
Description: The compounds were dissolved in a small amount of 100% EtOH and then adjusted with 20% cyclodextrin, and the pH was adjusted to 6.0. The investigated compounds were administered intraperitoneally (i.p.) 60 min before the behavioural test. Control drugs i.e. diazepam, clozapine and imipramine (Sigma–Aldrich, St. Louis, USA), were administered i.p. 60 min before the behavioural test. Cyclodextrin (20%) was used as a vehicle. All solutions were prepared immediately prior to the experiments and were administered at a constant volume of 10 ml/kg.
The experiments were performed according to the procedure described in our previous studies[75]^,[80]. Briefly, to habituate mice to the experimental environment, each animal was transferred to a 12 cm (diameter) × 20 cm (height) glass cage lined with sawdust 30 min before treatment. Test compounds were administered intraperitoneally (i.p.) at doses of 2.5, 5, and 10 mg/kg body weight 60 min before the test was performed. The head twitch response (HTR) in mice was induced by DOI (2.5 mg/kg, i.p.). Immediately after treatment, the number of head twitches was counted during a 20 min session. Haloperidol and clozapine were used as the reference compounds at active doses of 0.2 and 5 mg/kg, respectively.

[1] = test system: Salmonella typhimurium strains TA98 and TA100; format: cell-based; details: TA98 and TA100, with and without S9, ≤ 30 µM
Description: The primary assessment of the cardiotoxic risk and mutagenic potential of the six selected 1,2,4-oxadiazole derivatives was performed in the hERG channel assay and the mini-AMES test, respectively. The mutagenicity potential was determined in strains TA98 (frameshift mutation) and TA100 (base-pair substitution) of Salmonella typhimurium in the presence and absence of an exogenous metabolic activation system (rat liver S9 fraction) containing mammalian microsomal enzymes.
The Ames microplate fluctuation protocol (MPF) assay was performed with Salmonella typhimurium strains TA98 and TA100, […]. The bacterial strain as well as the exposure and indicator medium were obtained from Xenometrix AG (Allschwil, Switzerland). […] After the addition of indicator medium, each well of the 24-well plate was aliquoted into 48 wells of a 384-well plate.
The occurrence of reversion events to histidine prototrophy was observed as the growth of bacteria in the indicator medium without histidine after 72 h of incubation at 37 °C. Bacterial growth in 384-well plates was visualised by a colour change of medium from violet to yellow due to the addition of pH indicator dye. The absorbance was measured with a microplate reader (EnSpire) at 420 nm. The reference mutagen NQNO (0.5 mM) was used as a positive control in the experiments. The medium control baseline (MCB) was calculated, as derived from the mean number of revertants in the medium control plus one standard deviation.
AMES test was conducted with two Salmonella typhimurium strains TA98 and TA100 in the presence or absence of liver homogenate S9 to simulate the metabolic conversions of tested compounds with liver enzymes. The AMES MPF 98/100 assay from Xenometrix was performed as described by the supplier. Data were analysed with the AMES MPF calculation […]
(also on this page, place not known: TA10 cal culation TA98 - S9 Revertants TA98 + S9 Revertants - S9 Revertants TA100 + S9 Revertants TA98 - S9 Revertants TA98 + S9 Revertants TA100 - S9 Revertants 0 TA100 + S9 Revertants)

mGlu4 receptor = biological target: T2, mGlu4 receptor (Homo sapiens, UniProt Q14833); assay: forskolin-stimulated cAMP assay, PAM mode (EC20 of L-Glu), T-REx 293 cells; format: cell-based; details: SEM where given; for EC50 / Emax: PAM mode; for EC50: EC20 (3 µM) L-Glu, T-REx 293 cells expressing human mGlu4 receptor; for Emax: T-REx-293, human mGlu4, read-out: GluMax; for Fold shift of L-Glu dose-response curve: in the presence of 10 µM of compound
T2 construct: mGlu4 receptor NM_000841, mGlu7 receptor NM_000844.2, and mGlu8 receptor NM_000845; expressed in transfected cells; host or cells: T-REx 293
T2 sequence (Q14833 33-912): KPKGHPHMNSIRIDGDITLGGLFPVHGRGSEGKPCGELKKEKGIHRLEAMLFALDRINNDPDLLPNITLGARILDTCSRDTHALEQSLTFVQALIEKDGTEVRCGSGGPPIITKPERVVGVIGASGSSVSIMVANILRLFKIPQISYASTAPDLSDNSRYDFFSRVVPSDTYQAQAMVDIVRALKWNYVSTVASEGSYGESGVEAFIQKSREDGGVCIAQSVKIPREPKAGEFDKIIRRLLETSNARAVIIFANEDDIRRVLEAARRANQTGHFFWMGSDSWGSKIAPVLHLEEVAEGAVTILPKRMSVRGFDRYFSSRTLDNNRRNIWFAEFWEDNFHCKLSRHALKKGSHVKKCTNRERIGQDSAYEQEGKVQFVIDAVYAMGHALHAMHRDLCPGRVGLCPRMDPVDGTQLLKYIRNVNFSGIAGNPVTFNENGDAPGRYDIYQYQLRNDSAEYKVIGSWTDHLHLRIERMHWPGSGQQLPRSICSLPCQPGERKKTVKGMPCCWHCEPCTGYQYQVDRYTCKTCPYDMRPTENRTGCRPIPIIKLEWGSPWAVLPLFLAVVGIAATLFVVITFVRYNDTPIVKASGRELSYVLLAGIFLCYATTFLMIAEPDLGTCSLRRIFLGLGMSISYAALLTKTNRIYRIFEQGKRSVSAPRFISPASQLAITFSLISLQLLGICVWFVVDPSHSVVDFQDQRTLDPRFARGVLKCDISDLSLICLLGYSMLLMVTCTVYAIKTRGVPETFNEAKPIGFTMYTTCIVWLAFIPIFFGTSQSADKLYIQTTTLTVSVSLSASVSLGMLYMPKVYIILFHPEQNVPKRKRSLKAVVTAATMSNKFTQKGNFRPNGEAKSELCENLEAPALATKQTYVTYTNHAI
Description: The activity of the compounds was assessed in vitro in a forskolin-stimulated cAMP assay in T-REx 293 cells expressing human mGlu4 receptors in the presence of an EC20 concentration of L-Glu; a PAM was identified if it potentiated cAMP inhibition by the Gi/o-dependent pathway of mGlu4 receptor activation; i.e. if it was able to produce a leftward shift in the potency of the endogenous agonist.
as §1
Statistical calculations were performed using GraphPad Prism 5.04 software (GraphPad Software, La Jolla, CA, USA). The curves were fitted to a 3-parametric logistic equation, allowing for the determination of EC50 values. Each data point was analysed in triplicate.

[2] = 2.5 mg/kg i.p., 60 min before test
[3] = 10 mg/kg i.p., 60 min before test
[4] = over the doses 2.5, 5 and 10 mg/kg i.p.

Row | Structure (SMILES) | agonistic activity at mGlu7 receptor (mGlu7 receptor) | effect on DOI-induced HTR (Albino Swiss mice; [2]) | effect on DOI-induced HTR (Albino Swiss mice; 5 mg/kg i.p., 60 min before test) | effect on DOI-induced HTR (Albino Swiss mice; [3]) | effect on DOI-induced HTR (Albino Swiss mice; [4]) | mutagenic activity (mini-AMES) [1] | EC50 (mGlu4 receptor) | Emax (mGlu4 receptor) | Fold shift of L-Glu dose-response curve (mGlu4 receptor)
1 | O=C(Nc1ccc(-c2noc(-c3ccccc3Cl)n2)c(C(F)(F)F)c1)c1ccccn1 [Compound 60] | direct agonistic activity | significant reductions in the HTR score | not statistically significant | significant reductions in the HTR score | significant anxiolytic- and antipsychotic-like properties | no mutagenic potential | 390 nM | 120% | 2.94 (0.1)^d
2 | COc1cc(NC(=O)c2ccccn2)ccc1-c1noc(-c2ccccc2Cl)n1 [Compound 34] | direct agonistic activity | statistically significant effect; also recorded: significant reductions in the HTR score | – | statistically significant effect; also recorded: significant reductions in the HTR score | significant anxiolytic- and antipsychotic-like properties | no mutagenic potential | 656 nM | 114% | 13.4 (2.00)^d
3 | COc1cc(NC(=O)c2ccccn2)ccc1-c1noc(-c2ccccc2F)n1 [Compound 37] | direct agonistic activity | – | – | – | significant anxiolytic- and antipsychotic-like properties; also recorded: reversed the DOI-induced effect at all investigated doses; also recorded: dose-dependent reverse effects | no mutagenic potential | 393 nM | 116% | 3.68 (0.19)^d
4 | O=C(Nc1ccc(-c2noc(-c3ccccc3Cl)n2)c(Cl)c1)c1ccccn1 [Compound 52, N-(3-chloro-4-(5-(2-chlorophenyl)-1,2,4-oxadiazol-3-yl)phenyl)picolinamide] | direct agonistic activity | – | – | – | significant anxiolytic- and antipsychotic-like properties; also recorded: at all doses significantly reduced; also recorded: Clear dose-response effects | no mutagenic potential | 282 nM | 123% | 8.03 (0.76)^d
